The values that follow come from PubChem BioAssay AID651878 (Vanderbilt Specialized Chemistry Center, 2012).

Calls of active or inactive are those of the source.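 The calls were made as follows: active = Positive modulators of the M5 receptor in a calcium signal test, half-maximal potency under 10 µM; inactive = the rest.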

Chain of Muscarinic acetylcholine receptor M5 (Homo sapiens) (P08912 whole entry, looked up): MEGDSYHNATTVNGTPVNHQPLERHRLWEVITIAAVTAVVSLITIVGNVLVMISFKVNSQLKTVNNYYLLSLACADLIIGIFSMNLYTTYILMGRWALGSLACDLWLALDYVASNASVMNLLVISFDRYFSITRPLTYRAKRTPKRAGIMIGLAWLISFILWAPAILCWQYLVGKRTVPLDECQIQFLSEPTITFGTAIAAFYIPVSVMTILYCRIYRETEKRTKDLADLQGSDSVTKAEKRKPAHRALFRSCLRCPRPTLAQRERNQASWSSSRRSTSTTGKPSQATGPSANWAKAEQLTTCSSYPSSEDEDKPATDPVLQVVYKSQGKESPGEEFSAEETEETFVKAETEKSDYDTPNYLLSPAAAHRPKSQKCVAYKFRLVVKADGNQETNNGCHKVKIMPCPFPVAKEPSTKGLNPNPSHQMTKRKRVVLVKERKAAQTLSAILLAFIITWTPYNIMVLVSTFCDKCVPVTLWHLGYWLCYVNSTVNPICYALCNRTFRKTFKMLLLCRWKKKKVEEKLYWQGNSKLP

One experiment concerns the target Muscarinic acetylcholine receptor M5 (Homo sapiens) (UniProt P08912). Put plainly: M5 receptor positive allosteric modulators, dose response, cell-based, concentration-response curve (AID 651878). The conditions noted are these: CHO-K1 hM5, Fluo-4 calcium flux, ACh EC20 potentiation. For orientation: Calcium assays in cells follow changes in intracellular calcium, usually with a dye or a luminescent sensor.
In the case of `COc1ccc(CN2C(=O)C(O)(c3ccc(F)nc3)c3cc(OC(F)(F)F)ccc32)cc1` (configuration not stated), the EC50 (as a rule, the midpoint of the concentration-response curve) was 2190 nM.

For `COc1ccc(CN2C(=O)C(O)(C[N+](=O)[O-])c3cc(OC(F)(F)F)ccc32)cc1` (configuration not stated), the EC50 was 1380 nM.

Staying with this experiment, now noted: CHO-K1 hM5, Fluo-4 calcium flux, ACh EC20 potentiation; at 31.6 µM (top of the series).
On to `COc1ccc(CN2C(=O)C3(COC3)c3cc(OC(F)(F)F)ccc32)cc1`, for which the “% ACh max response” value is “inactive”.

Consider `COc1ncc(-c2ccc(CN3C(=O)C(=O)c4cc(OC(F)(F)F)ccc43)cc2)cn1`, for which the % ACh max response was 74.4%.

Regarding `COc1ccc(CN2C(=O)C(CO)(CO)c3cc(OC(F)(F)F)ccc32)cc1`, the “% ACh max response” value was “inactive”.

Regarding `COc1ccc(-c2ccc(CN3C(=O)C(=O)c4cc(OC(F)(F)F)ccc43)cc2)cn1`, the % ACh max response was 71.9%.

Regarding `COc1ccc(CN2C(=O)C(O)(c3ccc(N(C)C)nc3)c3cc(OC(F)(F)F)ccc32)cc1` (configuration not stated), the “% ACh max response” value is “inactive”.
